Data published in PubChem BioAssay AID1919010 (Molecular Pharmacology Branch, DTP, NCI, 2023).

System: Hs578T complex spheroid growth, percent test/control
Experiment: Anticancer human tumor Hs578T cell line growth inhibition [AhR];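 note: luminescent viability signal as a proxy for spheroid growth; spheroids exposed to agents for one week after three days of growth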
Conditions: for IC50: curve of first compound; for viability, T/C: stronger effect = lower value
Excerpt: Multicellular complex tumor spheroid response to aryl hydrocarbon receptor antagonists in combination with a variety of drugs and investigational agents in selected tumor cell lines
The current study was undertaken to assess response to aryl hydrocarbon receptor antagonists in combination with standard-of-care drugs and investigational agents in solid tumor complex spheroid models. Complex spheroids include a stromal component modeled by human endothelial cells (HUVEC) and fibroblasts modeled by human mesenchymal stem cells (MSCs). The concentration ranges selected for each drug and investigational agent were based upon clinically achievable concentrations if the clinical Cmax of the agent was known.
Compounds. The drugs and investigational agents: BAY 2416964 (NSC825713), GNF351 (NSC835774), CH-223191 (NSC835775), CPI-455 (NSC825282), aza-TdCyd (NSC777586), decitabine (NSC127716), belinostat (NSC758774), entinostat (NSC756642), pevonedistat (NSC761192), tazemetostat (NSC777109), talazoparib (NSC765396), olaparib (NSC753686), selinexor (NSC780203), nedisertib (M3814, NSC802822), bortezomib (NSC756655), venetoclax (NSC766270), doxorubicin (NSC123127), elimusertib (BAY189344, NSC800525), ceralasertib (AZD6738, NSC777638), TAK-243 (NSC785004), alisertib (NSC759677), etoposide (NSC141540), topotecan (NSC609699), eribulin (NSC707389), gemcitabine (NSC613327), carboplatin (NSC241240), cisplatin (NSC119875), and SN-38 (NSC673596) were obtained from the National Cancer Institute (NCI) Developmental Therapeutics Program Chemical Repository (32). The FDA-approved anticancer drug set is available from the Developmental Therapeutics Program at https://dtp.cancer.gov/organization/dscb/obtaining/available plates.htm. […] The stock solutions were prepared in dimethyl sulfoxide (DMSO, Sigma-Aldrich, St. Louis, MO, cat. D2650), except for the platinum compounds which were prepared in saline (Quality Biological, Gaithersburg, MD, cat. 114-055-101), at 800-fold the tested concentration and stored at -70 degrees C prior to their use. All drugs and investigational agents were tested over a range starting from a high concentration at or near the clinical Cmax and decreasing in half-log increments. If the clinical Cmax for an agent had not been determined, the highest concentration tested was 10 microM (Table 1).
Cell Culture. All cells were maintained in an incubator at 37 degrees C and 5% CO2 with 95% humidity. The PDC lines were cultured according to standard operating procedures established by the NCI PDMR (https://pdmr.cancer.gov). Briefly, all PDCs were thawed and cultured in Matrigel-coated flasks prepared with a working solution of 1X Ham's F-12 nutrient mix, without supplementation (Invitrogen, Waltham, MA, cat. 11765054), 100 U/mL penicillin-streptomycin (Invitrogen, cat. 15140122), and 2.5% Matrigel (Corning Inc., Corning, NY, cat. 354248) for the first three passages. All PDCs were cultured in complete DMEM/F-12 media containing advanced DMEM/F-12 (Invitrogen, cat. 12634028), 4.9% defined fetal bovine serum, heat inactivated (HyClone Laboratories Inc., Logan, UT, cat. SH30070.03HI), 389 ng/mL hydrocortisone (Sigma-Aldrich, cat. H4001), 9.7 ng/mL human EGF recombinant protein (Invitrogen, cat. PHG0313), 23.4 microg/mL adenine (Sigma-Aldrich, cat. A2786), 97.3 U/mL penicillin-streptomycin (Invitrogen, cat. 15140122), 1.9 mM L-glutamine (Invitrogen, cat. 25030081), and 9.7 microM Y-27632 dihydrochloride (Tocris Bioscience, Bristol, United Kingdom, cat. 1254). The PDCs were cultured in complete DMEM/F12 media without 10 microM Y-27632 dihydrochloride for at least two passages prior to the screen. The established cell lines NCI-H1341 and […] were cultured in DMEM/F-12, HEPES (Invitrogen, cat. 11330032), 5% defined fetal bovine serum (HyClone Laboratories Inc., cat. SH30070.03), ITS premix universal culture supplement [insulin (5 microg/mL), transferrin (5 microg/mL), and selenious acid (5 ng/mL)] […]

[1] = second compound 0.1 µM, first compound 0.0316 µM
[2] = second compound 0.1 µM, first compound 0.1 µM
[3] = second compound 0.1 µM, first compound 0.316 µM
[4] = second compound 0.1 µM, first compound 1 µM
[5] = second compound 0.1 µM, first compound 3.16 µM
[6] = second compound 0.1 µM, first compound 10 µM
[7] = second compound 0.316 µM, first compound 0.0316 µM
[8] = second compound 0.316 µM, first compound 0.1 µM
[9] = second compound 0.316 µM, first compound 0.316 µM
[10] = second compound 0.316 µM, first compound 1 µM
[11] = second compound 0.316 µM, first compound 3.16 µM
[12] = second compound 0.316 µM, first compound 10 µM
[13] = second compound 1 µM, first compound 0.0316 µM
[14] = second compound 1 µM, first compound 0.1 µM
[15] = second compound 1 µM, first compound 0.316 µM
[16] = second compound 1 µM, first compound 1 µM
[17] = second compound 1 µM, first compound 3.16 µM
[18] = second compound 1 µM, first compound 10 µM
[19] = second compound 3.16 µM, first compound 0.0316 µM
[20] = second compound 3.16 µM, first compound 0.1 µM
[21] = second compound 3.16 µM, first compound 0.316 µM
[22] = second compound 3.16 µM, first compound 1 µM
[23] = second compound 3.16 µM, first compound 3.16 µM
[24] = second compound 3.16 µM, first compound 10 µM
[25] = second compound 10 µM, first compound 0.0316 µM
[26] = second compound 10 µM, first compound 0.1 µM
[27] = second compound 10 µM, first compound 0.316 µM
[28] = second compound 10 µM, first compound 1 µM
[29] = second compound 10 µM, first compound 3.16 µM
[30] = second compound 10 µM, first compound 10 µM

Compound	IC50 (second compound 0.1 µM) [nM]	IC50 (second compound 0.316 µM) [nM]	IC50 (second compound 1 µM) [nM]	IC50 (second compound 3.16 µM) [nM]	IC50 (second compound 10 µM) [nM]	viability, T/C [1] [%]	viability, T/C [2] [%]	viability, T/C [3] [%]	viability, T/C [4] [%]	viability, T/C [5] [%]	viability, T/C [6] [%]	viability, T/C [7] [%]	viability, T/C [8] [%]	viability, T/C [9] [%]	viability, T/C [13] [%]	viability, T/C [14] [%]	viability, T/C [19] [%]	viability, T/C [20] [%]	viability, T/C [25] [%]	viability, T/C [26] [%]	other results
COc1cc(Nc2ncc3c(n2)-c2ccc(Cl)cc2C(c2c(F)cccc2OC)=NC3)ccc1C(=O)O + CC(CO)NC(=O)c1cc(-c2ccc(Cl)cc2)nn(-c2cnn(C)c2)c1=O	> 10000	> 10000	> 10000	> 10000	> 10000	99.8	92.3	104	99.1	93.3	59.6	94.6	96	100	102	102	95.5	91.6	84.9	84	viability, T/C [10]: 93.4%; viability, T/C [11]: 84.4%; viability, T/C [12]: 51.8%; viability, T/C [15]: 114%; viability, T/C [16]: 99%; viability, T/C [17]: 85.3%; viability, T/C [18]: 68.6%; viability, T/C [21]: 101%; viability, T/C [22]: 102%; viability, T/C [23]: 84.7%; viability, T/C [24]: 67.3%; viability, T/C [27]: 93.6%; viability, T/C [28]: 97.8%; viability, T/C [29]: 83.5%; viability, T/C [30]: 72.3%
Cn1ncnc1C1c2n[nH]c(=O)c3cc(F)cc(c23)NC1c1ccc(F)cc1 (stereo not given) + CC(CO)NC(=O)c1cc(-c2ccc(Cl)cc2)nn(-c2cnn(C)c2)c1=O	> 100	> 100	> 100	> 100	> 100	117	120	–	–	–	–	118	108	–	117	109	118	118	109	118	viability, T/C (second compound 0.1 µM, first compound 0.000316 µM): 111%; viability, T/C (second compound 0.1 µM, first compound 0.001 µM): 118%; viability, T/C (second compound 0.1 µM, first compound 0.00316 µM): 117%; viability, T/C (second compound 0.1 µM, first compound 0.01 µM): 109%; viability, T/C (second compound 0.316 µM, first compound 0.000316 µM): 110%; viability, T/C (second compound 0.316 µM, first compound 0.001 µM): 115%; viability, T/C (second compound 0.316 µM, first compound 0.00316 µM): 125%; viability, T/C (second compound 0.316 µM, first compound 0.01 µM): 118%; viability, T/C (second compound 1 µM, first compound 0.000316 µM): 112%; viability, T/C (second compound 1 µM, first compound 0.001 µM): 131%; viability, T/C (second compound 1 µM, first compound 0.00316 µM): 127%; viability, T/C (second compound 1 µM, first compound 0.01 µM): 109%; viability, T/C (second compound 3.16 µM, first compound 0.000316 µM): 108%; viability, T/C (second compound 3.16 µM, first compound 0.001 µM): 127%; viability, T/C (second compound 3.16 µM, first compound 0.00316 µM): 140%; viability, T/C (second compound 3.16 µM, first compound 0.01 µM): 114%; viability, T/C (second compound 10 µM, first compound 0.000316 µM): 95.1%; viability, T/C (second compound 10 µM, first compound 0.001 µM): 110%; viability, T/C (second compound 10 µM, first compound 0.00316 µM): 104%; viability, T/C (second compound 10 µM, first compound 0.01 µM): 95.6%
NS(=O)(=O)OCC1CC(n2ccc3c(NC4CCc5ccccc54)ncnc32)CC1O (stereo not given) + CC(CO)NC(=O)c1cc(-c2ccc(Cl)cc2)nn(-c2cnn(C)c2)c1=O	914	995	1240	2010	2320	104	95.3	69.9	47.6	41.4	33	114	81	75	109	90.6	119	91.3	95.1	96.6	viability, T/C [10]: 50%; viability, T/C [11]: 30.1%; viability, T/C [12]: 29.4%; viability, T/C [15]: 77.9%; viability, T/C [16]: 52.7%; viability, T/C [17]: 34.7%; viability, T/C [18]: 27.8%; viability, T/C [21]: 90.2%; viability, T/C [22]: 55.9%; viability, T/C [23]: 41.6%; viability, T/C [24]: 34.8%; viability, T/C [27]: 88.9%; viability, T/C [28]: 65.2%; viability, T/C [29]: 44.1%; viability, T/C [30]: 40.8%
O=C(C=Cc1cccc(S(=O)(=O)Nc2ccccc2)c1)NO + CC(CO)NC(=O)c1cc(-c2ccc(Cl)cc2)nn(-c2cnn(C)c2)c1=O	2590	2510	2780	2420	2290	112	113	102	82.6	43.2	2.61	115	116	103	109	117	106	113	93.5	94.8	viability, T/C [10]: 82.5%; viability, T/C [11]: 41.8%; viability, T/C [12]: 2%; viability, T/C [15]: 106%; viability, T/C [16]: 89.8%; viability, T/C [17]: 45.1%; viability, T/C [18]: 2.32%; viability, T/C [21]: 107%; viability, T/C [22]: 80.8%; viability, T/C [23]: 41.1%; viability, T/C [24]: 2.02%; viability, T/C [27]: 93.6%; viability, T/C [28]: 70.5%; viability, T/C [29]: 42.1%; viability, T/C [30]: 1.62%
